Measurements from PubChem BioAssay (NCI).
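Where inhibition never reached the appropriate level, the endpoint shown equals the highest concentration tested. Otherwise, values were interpolated linearly from a five-concentration, 48-hour dose response in 96-well plates. At the TGI there is no net growth.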

What was measured:
Experiment in all cases: NCI tumour cell line growth inhibition, 48 h
786-0 renal = test system: 786-0 renal
A498 renal = test system: A498 renal
A549 NSCLC = test system: A549 NSCLC
ACHN renal = test system: ACHN renal
BT-549 breast = test system: BT-549 breast
CAKI-1 renal = test system: CAKI-1 renal
CCRF-CEM leukemia = test system: CCRF-CEM leukemia
COLO 205 colon = test system: COLO 205 colon
DU-145 prostate = test system: DU-145 prostate
HCC-2998 colon = test system: HCC-2998 colon
HCT-116 colon = test system: HCT-116 colon
HCT-15 colon = test system: HCT-15 colon
HOP-62 NSCLC = test system: HOP-62 NSCLC
HOP-92 NSCLC = test system: HOP-92 NSCLC
HS 578T breast = test system: HS 578T breast
HT29 colon = test system: HT29 colon
IGROV1 ovarian = test system: IGROV1 ovarian
K-562 leukemia = test system: K-562 leukemia
KM12 colon = test system: KM12 colon
M14 melanoma = test system: M14 melanoma
MALME-3M melanoma = test system: MALME-3M melanoma
MCF7 breast = test system: MCF7 breast
MDA-MB-231 breast = test system: MDA-MB-231 breast
MDA-MB-435 = test system: MDA-MB-435
MDA-N = test system: MDA-N
MOLT-4 leukemia = test system: MOLT-4 leukemia
NCI-H226 lung = test system: NCI-H226 lung
NCI-H23 lung = test system: NCI-H23 lung
NCI-H460 lung = test system: NCI-H460 lung
NCI-H522 lung = test system: NCI-H522 lung
NCI/ADR-RES ovarian = test system: NCI/ADR-RES ovarian
OVCAR-3 ovarian = test system: OVCAR-3 ovarian
OVCAR-4 ovarian = test system: OVCAR-4 ovarian
OVCAR-5 ovarian = test system: OVCAR-5 ovarian
OVCAR-8 ovarian = test system: OVCAR-8 ovarian
PC-3 prostate = test system: PC-3 prostate
RPMI-8226 leukemia = test system: RPMI-8226 leukemia
RXF 393 renal = test system: RXF 393 renal
SF-268 CNS = test system: SF-268 CNS
SF-295 CNS = test system: SF-295 CNS
SF-539 CNS = test system: SF-539 CNS
SK-MEL-2 melanoma = test system: SK-MEL-2 melanoma
SK-MEL-28 melanoma = test system: SK-MEL-28 melanoma
SK-MEL-5 melanoma = test system: SK-MEL-5 melanoma
SK-OV-3 ovarian = test system: SK-OV-3 ovarian
SN12C renal = test system: SN12C renal
SNB-75 CNS = test system: SNB-75 CNS
SR leukemia = test system: SR leukemia
SW-620 colon = test system: SW-620 colon
T-47D breast = test system: T-47D breast
TK-10 renal = test system: TK-10 renal
U251 CNS = test system: U251 CNS
UACC-257 melanoma = test system: UACC-257 melanoma
UACC-62 melanoma = test system: UACC-62 melanoma
UO-31 renal = test system: UO-31 renal

For O=[N+]([O-])c1ccc(N2N=C(c3c(O)ccc4ccccc34)CC2c2ccc(Cl)cc2)c([N+](=O)[O-])c1 (stereo not given), which TGI (786-0 renal) is on record?
The TGI was > 100 µM.

What about the TGI (A498 renal) of the same compound?
Its TGI is 63.9 µM.

What about the TGI (A549 NSCLC) of the same compound?
The TGI was 88.1 µM.

And the TGI (ACHN renal)?
The TGI was > 100 µM.

And the TGI (BT-549 breast)?
Its TGI is > 100 µM.

And the TGI (CAKI-1 renal)?
The TGI was 93.2 µM.

What about the TGI (CCRF-CEM leukemia) of the same compound?
The TGI was 31 µM.

And the TGI (COLO 205 colon)?
The TGI was 29.5 µM.

What about the TGI (DU-145 prostate) of the same compound?
Its TGI is > 100 µM.

What about the TGI (HCC-2998 colon) of the same compound?
Its TGI is > 100 µM.

What about the TGI (HCT-116 colon) of the same compound?
The TGI was 37.2 µM.

And the TGI (HCT-15 colon)?
The TGI was > 100 µM.

And the TGI (HOP-62 NSCLC)?
Its TGI is 61.6 µM.

What about the TGI (HOP-92 NSCLC) of the same compound?
Its TGI is > 100 µM.

And the TGI (HS 578T breast)?
Its TGI is > 100 µM.

What about the TGI (HT29 colon) of the same compound?
The TGI was 67 µM.

What about the TGI (IGROV1 ovarian) of the same compound?
Its TGI is > 100 µM.

And the TGI (K-562 leukemia)?
Its TGI is 45.6 µM.

What about the TGI (KM12 colon) of the same compound?
Its TGI is 45.5 µM.

And the TGI (M14 melanoma)?
Its TGI is 71 µM.

And the TGI (MALME-3M melanoma)?
Its TGI is 63 µM.

And the TGI (MCF7 breast)?
Its TGI is > 100 µM.

And the TGI (MDA-MB-231 breast)?
Its TGI is 56.2 µM.

What about the TGI (MDA-MB-435) of the same compound?
Its TGI is > 100 µM.

And the TGI (MDA-N)?
The TGI was > 100 µM.

And the TGI (MOLT-4 leukemia)?
The TGI was 32.4 µM.

And the TGI (NCI-H226 lung)?
The TGI was > 100 µM.

What about the TGI (NCI-H23 lung) of the same compound?
The TGI was > 100 µM.

And the TGI (NCI-H460 lung)?
The TGI was > 100 µM.

And the TGI (NCI-H522 lung)?
Its TGI is > 100 µM.

And the TGI (NCI/ADR-RES ovarian)?
The TGI was 55.6 µM.

What about the TGI (OVCAR-3 ovarian) of the same compound?
Its TGI is > 100 µM.

What about the TGI (OVCAR-4 ovarian) of the same compound?
The TGI was > 100 µM.

And the TGI (OVCAR-5 ovarian)?
The TGI was > 100 µM.

And the TGI (OVCAR-8 ovarian)?
The TGI was > 100 µM.

And the TGI (PC-3 prostate)?
Its TGI is 66.4 µM.

And the TGI (RPMI-8226 leukemia)?
The TGI was > 100 µM.

And the TGI (RXF 393 renal)?
Its TGI is 73.5 µM.

What about the TGI (SF-268 CNS) of the same compound?
The TGI was > 100 µM.

What about the TGI (SF-295 CNS) of the same compound?
The TGI was 39.1 µM.

What about the TGI (SF-539 CNS) of the same compound?
Its TGI is 91.7 µM.

What about the TGI (SK-MEL-2 melanoma) of the same compound?
The TGI was 44.2 µM.

What about the TGI (SK-MEL-28 melanoma) of the same compound?
The TGI was > 100 µM.

And the TGI (SK-MEL-5 melanoma)?
Its TGI is 39.1 µM.

And the TGI (SK-OV-3 ovarian)?
Its TGI is > 100 µM.

And the TGI (SN12C renal)?
The TGI was > 100 µM.

And the TGI (SNB-75 CNS)?
The TGI was > 100 µM.

And the TGI (SR leukemia)?
Its TGI is 31.4 µM.

What about the TGI (SW-620 colon) of the same compound?
The TGI was > 100 µM.

What about the TGI (T-47D breast) of the same compound?
Its TGI is > 100 µM.

And the TGI (TK-10 renal)?
Its TGI is > 100 µM.

What about the TGI (U251 CNS) of the same compound?
The TGI was > 100 µM.

And the TGI (UACC-257 melanoma)?
Its TGI is > 100 µM.

What about the TGI (UACC-62 melanoma) of the same compound?
The TGI was 60.4 µM.

And the TGI (UO-31 renal)?
Its TGI is > 100 µM.
